Earlier results in paper PMC2992174 (Journal of nuclear medicine : official publication, Society …, 2010).
Positions of bridges follow the written chain, without caps; N, C: chain ends. No end group written: not given here.

Experiments:
IPA = conditions: ^111In-labeled peptide, IPA in vivo

Substance	background activity (IPA) [%ID/g]	target uptake (IPA) [%ID/g]	uptake by Candida albicans (Candida albicans)
CGGRLGPFC-NH2 (disulfide 1-9)	0.14 ± 0.02	0.37 ± 0.06	
Fe-TAFC			inefficient
